Experimental data from patent publication US7723029B2, “Biochips including ion transport detecting structures and methods of use” (Aviva Biosciences Corporation, priority 2002, dated 2010).

System: RBL-1 cell
Conditions: glass chip treated with base then H2O (FIG. 31) and conventional patch glass capillary (FIG. 30), addition of barium chloride
Procedure: After baking, the glass chips were stored in de-ionized H2O for many hours (ranging from less than 1 hour to over 2 days). […] The whole cell recording on a RBL-1 cell on this chip for a ramping voltage protocol, in which the voltage applied across the cell membrane linearly varied with time from −120 mV to 60 mV at a rate of 120 mV/second, is shown in FIG. 29. […] With or without baking the chips, the glass chips were first treated with HNO3 (6 M) for 4 or 5 hours, then treated with NaOH (5M) for 30-45 minutes, and were then transferred into de-ionized H2O (pH=6-7) for storage/treatment. […] A ramping voltage protocol was used for the recording in FIG. 32, in which the voltage applied across the cell membrane linearly varied with time from −120 mV to 60 mV at a rate of 120 mV/second. […] A ramping voltage protocol was used for the recording in FIG. 33, in which the voltage applied across the cell membrane linearly varied with time from −120 mV to 60 mV at a rate of 120 mV/second. • (4) Laser polishing followed by Acid treatment and then by base treatment.

Q: How did the whole-cell current turn out when `[Ba+2].[Cl-].[Cl-]` [barium chloride] was run?
A: inhibition of the whole-cell current
